US11091478B2 (Fochon Pharmaceuticals, Ltd., priority 2017, dated 2021)

How the values were obtained:
DOHH2 cells = test: Cell proliferation assay (MTS), DOHH2 cells, 120 h; assay type: cell-based; details: Homo sapiens, DOHH-2, 120 h
In short: (§1)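 Treatment lasts 72 h for RS4;11 and 120 h for DOHH2 cells seeded at 5000 per well in serum-containing RPMI-1640. A 2 h MTS step, halted with 10% SDS, precedes dual-wavelength absorbance reading and IC50 fitting.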

RS4;11 cells = test: Cell proliferation assay (MTS), RS4;11 cells, 72 h; assay type: cell-based; details: Homo sapiens, RS4-11, 72 h
In short: as §1

| Structure (SMILES) | IC50 (DOHH2 cells) | IC50 (RS4;11 cells) |
| --- | --- | --- |
| CC1(C)CCC(CN2CCN(c3ccc(C(=O)NS(=O)(=O)c4cc5c(c([N+](=O)[O-])c4)N[C@H](Cc4ccc(F)cc4)CO5)c(Oc4cnc5[nH]ccc5c4)c3)CC2)=C(c2ccc(Cl)cc2)C1 [Example 2-158, (R)-2-((1H-pyrrolo[2,3-b]pyridin-5-yl)oxy)-4-(4-((4′-chloro-5,5-dimethyl-3,4,5,6-tetra-hydro-[1,1′-biphenyl]-2-yl)methyl)piperazin-1-yl)-N-((3-(4-fluorobenzyl)-5-nitro-3,4-dihydro-2H-benzo[b][1,4]oxazin-7-yl)sulfo-nyl)benzamide] | 0.135 µM | 0.043 µM |
| CC1(C)CCC(CN2CCN(c3ccc(C(=O)NS(=O)(=O)c4cc5c(c([N+](=O)[O-])c4)N[C@H](Cc4ccccc4Cl)CO5)c(Oc4cnc5[nH]ccc5c4)c3)CC2)=C(c2ccc(Cl)cc2)C1 [Example 2-159, (R)-2-((1H-pyrrolo[2,3-b]pyridin-5-yl)oxy)-4-(4-((4′-chloro-5,5-dimethyl-3,4,5,6-tetra-hydro-[1,1′-biphenyl]-2-yl)methyl)piperazin-1-yl)-N-((3-(2-chlorobenzyl)-5-nitro-3,4-dihydro-2H-benzo[b][1,4]oxazin-7-yl)sulfo-nyl)benzamide] | 0.047 µM | 0.029 µM |
| CC1(C)CCC(CN2CCN(c3ccc(C(=O)NS(=O)(=O)c4cc5c(c([N+](=O)[O-])c4)N[C@H](Cc4ccc(Cl)cc4)CO5)c(Oc4cnc5[nH]ccc5c4)c3)CC2)=C(c2ccc(Cl)cc2)C1 [Example 2-160, (R)-2-((1H-pyrrolo[2,3-b]pyridin-5-yl)oxy)-4-(4-((4′-chloro-5,5-dimethyl-3,4,5,6-tetra-hydro-[1,1′-biphenyl]-2-yl)methyl)piperazin-yl)-N-((3-(4-chlorobenzyl)-5-nitro-3,4-dihydro-2H-benzo[b][1,4]oxazin-7-yl)sulfo-nyl)benzamide] | 0.168 µM | 0.095 µM |
| COc1ccc(CC2COc3cc(S(=O)(=O)NC(=O)c4ccc(N5CCN(CC6=C(c7ccc(Cl)cc7)CC(C)(C)CC6)CC5)cc4Oc4cnc5[nH]ccc5c4)cc([N+](=O)[O-])c3N2)nc1 (centres unmarked) [Example 2-161, 2-((1H-pyrrolo[2,3-b]pyridin-5-yl)oxy)-4-(4-((4′-chloro-5,5-dimethyl-3,4,5,6-tetrahydro-[1,1′-biphenyl]-2-yl)methyl)piperazin-1-yl)-N-((3-((5-methoxypyridin-2-yl)methyl)-5-nitro-3,4-dihydro-2H-benzo[b][1,4]oxa-zin-7-yl)sulfonyl)benzamide] | 0.02 µM | 0.017 µM |
| COc1ccc(C[C@H]2COc3cc(S(=O)(=O)NC(=O)c4ccc(N5CCN(CC6=C(c7ccc(Cl)cc7)CC(C)(C)CC6)CC5)cc4Oc4cnc5[nH]ccc5c4)cc([N+](=O)[O-])c3N2)nc1 [Example 2-162, (S)-2-((1H-pyrrolo[2,3-b]pyridin-5-yl)oxy)-4-(4-((4′-chloro-5,5-dimethyl-3,4,5,6-tetra-hydro-[1,1′-biphenyl]-2-yl)methyl)piperazin-1-yl)-N-((3-((5-methoxypyridin-2-yl)meth-yl)-5-nitro-3,4-dihydro-2H-benzo[b][1,4]oxain-7-yl)sulfonyl)benzamide] | 0.325 µM | 0.043 µM |
| CC1(C)CCC(CN2CCN(c3ccc(C(=O)NS(=O)(=O)c4cc5c(c([N+](=O)[O-])c4)N[C@@H](Cc4cccnc4)CO5)c(Oc4cnc5[nH]ccc5c4)c3)CC2)=C(c2ccc(Cl)cc2)C1 [Example 2-163, (S)-2-((1H-pyrrolo[2,3-b]pyridin-5-yl)oxy)-4-(4-((4′-chloro-5,5-dimethyl-3,4,5,6-tetra-hydro-[1,1′-biphenyl]-2-yl)methyl)piperazin-1-yl)-N-((5-nitro-3-(pyridin-3-ylmethyl)-3,4-dihydro-2H-benzo[b][1,4]oxazin-7-yl)sulfonyl)benzamide] | 0.053 µM | 0.029 µM |
| CC1(C)CCC(CN2CCN(c3ccc(C(=O)NS(=O)(=O)c4cc5c(c([N+](=O)[O-])c4)N[C@@H](Cc4ccncc4)CO5)c(Oc4cnc5[nH]ccc5c4)c3)CC2)=C(c2ccc(Cl)cc2)C1 [Example 2-164] | 0.016 µM | 0.034 µM |
| CC1(C)CCC(CN2CCN(c3ccc(C(=O)NS(=O)(=O)c4cc5c(c([N+](=O)[O-])c4)N[C@H](c4ccc(F)cc4)CO5)c(Oc4cnc5[nH]ccc5c4)c3)CC2)=C(c2ccc(Cl)cc2)C1 [Example 2-166, (R)-2-((1H-pyrrolo[2,3-b]pyridin-5-yl)oxy)-4-(4-((4′-chloro-5,5-dimethyl-3,4,5,6-tetra-hydro-[1,1′-biphenyl]-2-yl)methyl)piperazin-1-yl)-N-((3-(4-fluorophenyl)-5-nitro-3,4-dihydro-2H-benzo[b][1,4]oxazin-7-yl)sulfo-nyl)benzamide] | 0.3 µM | 0.082 µM |
| CC1(C)CCC(CN2CCN(c3ccc(C(=O)NS(=O)(=O)c4cc5c(c([N+](=O)[O-])c4)N[C@@H](c4ccc(S(C)(=O)=O)cc4)CO5)c(Oc4cnc5[nH]ccc5c4)c3)CC2)=C(c2ccc(Cl)cc2)C1 [Example 2-168, (S)-2-((1H-pyrrolo[2,3-b]pyridin-5-yl)oxy)-4-(4-((4′-chloro-5,5-dimethyl-3,4,5,6-tetra-hydro-[1,1′-biphenyl]-2-yl)methyl)piperazin-1-yl)-N-((3-(4-(methylsulfonyl)phenyl)-5-nitro-3,4-dihydro-2H-benzo[b][1,4]oxazin-7-yl)sulfonyl)benzamide] | 0.032 µM | 0.033 µM |
| CC1(C)CCC(CN2CCN(c3ccc(C(=O)NS(=O)(=O)c4cc5c(c([N+](=O)[O-])c4)N[C@H](c4ccc(S(C)(=O)=O)cc4)CO5)c(Oc4cnc5[nH]ccc5c4)c3)CC2)=C(c2ccc(Cl)cc2)C1 [Example 2-175, (R)-2-((1H-pyrrolo[2,3-b]pyridin-5-yl)oxy)-4-(4-((4′-chloro-5,5-dimethyl-3,4,5,6-tetra-hydro-[1,1′-biphenyl]-2-yl)methyl)piperazin-1-yl)-N-((3-(4-(methylsulfonyl)phenyl)-5-nitro-3,4-dihydro-2H-benzo[b][1,4]oxazin-7-yl)sulfonyl)benzamide] | 0.139 µM | 0.053 µM |
| COc1ccc([C@H]2COc3cc(S(=O)(=O)NC(=O)c4ccc(N5CCN(CC6=C(c7ccc(Cl)cc7)CC(C)(C)CC6)CC5)cc4Oc4cnc5[nH]ccc5c4)cc([N+](=O)[O-])c3N2)cc1 [Example 2-176, (S)-2-((1H-pyrrolo[2,3-b]pyridin-5-yl)oxy)-4-(4-((4′-chloro-5,5-dimethyl-3,4,5,6-tetra-hydro-[1,1′-biphenyl]-2-yl)methyl)piperazin-1-yl)-N-((3-(4-methoxyphenyl)-5-nitro-3,4-dihydro-2H-benzo[b][1,4]oxazin-7-yl)sul-fonyl)benzamide] | 0.547 µM | 0.064 µM |
| CC1(C)CCC(CN2CCN(c3ccc(C(=O)NS(=O)(=O)c4cc5c(c([N+](=O)[O-])c4)N[C@H](c4ccccn4)CO5)c(Oc4cnc5[nH]ccc5c4)c3)CC2)=C(c2ccc(Cl)cc2)C1 [Example 2-177, (R)-2-((1H-pyrrolo[2,3-b]pyridin-5-yl)oxy)-4-(4-((4′-chloro-5,5-dimethyl-3,4,5,6-tetra-hydro-[1,1′-biphenyl]-2-yl)methyl)piperazin-1-yl)-N-((5-nitro-3-(pyridin-2-yl)-3,4-di-hydro-2H-benzo[b][1,4]oxazin-7-yl)sulfonyl) benzamide] | 0.119 µM | 0.013 µM |
| COc1ccc([C@@H]2COc3cc(S(=O)(=O)NC(=O)c4ccc(N5CCN(CC6=C(c7ccc(Cl)cc7)CC(C)(C)CC6)CC5)cc4Oc4cnc5[nH]ccc5c4)cc([N+](=O)[O-])c3N2)nc1 [Example 2-179, (R)-2-((1H-pyrrolo[2,3-b]pyridin-5-yl)oxy)-4-(4-((4′-chloro-5,5-dimethyl-3,4,5,6-tetra-hydro-[1,1′-biphenyl]-2-yl)methyl)pieprazin-1-yl)-N-((3-(5-methoxypyridin-2-yl)-5-ni-tro-3,4-dihydro-2H-benzo[b][1,4]oxazin-7-yl)sulfonyl)benzamide] | 0.38 µM | 0.018 µM |
| CC1(C)CCC(CN2CCN(c3ccc(C(=O)NS(=O)(=O)c4cc5c(c([N+](=O)[O-])c4)NC(CC4CCOCC4)CO5)c(Oc4cnc5[nH]ccc5c4)c3)CC2)=C(c2ccc(Cl)cc2)C1 (centres unmarked) [Example 2-180, 2-((1H-pyrrolo[2,3-b]pyridin-5-yl)oxy)-4-(4-((4′-chloro-5,5-dimethyl-3,4,5,6-tetrahydro-[1,1′-biphenyl]-2-yl)methyl)piperazin-1-yl)-N-((5-nitro-3-((tetrahydro-2H-pyran-4-yl)methyl)-3,4-dihydro-2H-benzo[b][1,4]oxazin-7-yl)sulfonyl)benzamide] | 0.015 µM | 0.008 µM |
| CC1(C)CCC(CN2CCN(c3ccc(C(=O)NS(=O)(=O)c4cc5c(c([N+](=O)[O-])c4)N[C@H](CC4CCOCC4)CO5)c(Oc4cnc5[nH]ccc5c4)c3)CC2)=C(c2ccc(Cl)cc2)C1 [Example 2-181, (R)-2-((1H-pyrrolo[2,3-b]pyridin-5-yl)oxy)-4-(4-((4′-chloro-5,5-dimethyl-3,4,5,6-tetra-hydro-[1,1′-biphenyl]-2-yl)methyl)piperazin-1-yl)-N-((5-nitro-3-((tetrahydro-2H-pyran-4-yl)methyl)-3,4-dihydro-2H-benzo[b] [1,4]oxazin-7-yl)sulfonyl)benzamide] | 0.084 µM | 0.045 µM |
| CC1(C)CCC(CN2CCN(c3ccc(C(=O)NS(=O)(=O)c4cc5c(c([N+](=O)[O-])c4)N[C@@H](CC4CCOCC4)CO5)c(Oc4cnc5[nH]ccc5c4)c3)CC2)=C(c2ccc(Cl)cc2)C1 [Example 2-182, (S)-2-((1H-pyrrolo[2,3-b]pyridin-5-yl)oxy)-4-(4-((4′-chloro-5,5-dimethyl-3,4,5,6-tetra-hydro-[1,1′-biphenyl]-2-yl)methyl)piperazin-1-yl)-N-((5-nitro-3-((tetrahydro-2H-pyran-4-yl)methyl)-3,4-dihydro-2H-benzo[b] [1,4]oxazin-7-yl)sulfonyl)benzamide] | 0.016 µM | 0.003 µM |
